Values quoted from earlier work in patent US5308833A, “Method for treating hepatitis B carriers with minimal disease” (SciClone Pharmaceuticals, priority 1992, dated 1994).
Where no end group is shown, it is not given here.

What was measured:
[1] = system: hepatitis B virus
[2] = system: lymphocyte; settings: individuals suffering from chronic active hepatitis B

## thymosin α-1 (SDAAVDTSSEITTKDLKEKKEVVEEAEN; ends and bridges not checked; UniProt P06454 2-29, looked up) [28 amino acid peptide originally isolated from calf thymus thymosin fraction 5]
[1]; patients with chronic active hepatitis B administered the peptide
  hepatitis B virus DNA in serum: cleared hepatitis B virus DNA from serum
[1]; patients with chronic active hepatitis B, after treatment was terminated
  serum HBV DNA after treatment was terminated: tested persistently negative for serum HBV DNA
[2]
  lymphocyte counts: increases in lymphocyte counts
  production of γ-interferon: enhance production of γ-interferon
